Assay results: PMC6542528, “Identification, structure-activity relationship and in silico molecular docking analyses of five novel angiotensin I-converting enzyme (ACE)-inhibitory peptides from stone fish (Actinopyga lecanora) hydrolysates” (PLoS ONE, 2019)
No end group written: not given here.

What was measured:
[1] = target: T1, angiotensin I-converting enzyme (from rabbit lung) (Oryctolagus cuniculus, UniProt P12822); experiment: ACE-inhibitory activity assay (HHL substrate, colorimetric at 410 nm) and IC50 determination; format: biochemical; settings: mean ± SD, triplicate; for inhibition at 10000 µM: synthesized peptide at 10 mM; for IC50: synthesized peptide, non-linear regression
T1 construct: angiotensin I-converting enzyme (from rabbit lung); purchased Sigma Aldrich (St. Louis, Mo, USA); host or cells: rabbit lung (tissue-derived)
T1 sequence (P12822 34-1310): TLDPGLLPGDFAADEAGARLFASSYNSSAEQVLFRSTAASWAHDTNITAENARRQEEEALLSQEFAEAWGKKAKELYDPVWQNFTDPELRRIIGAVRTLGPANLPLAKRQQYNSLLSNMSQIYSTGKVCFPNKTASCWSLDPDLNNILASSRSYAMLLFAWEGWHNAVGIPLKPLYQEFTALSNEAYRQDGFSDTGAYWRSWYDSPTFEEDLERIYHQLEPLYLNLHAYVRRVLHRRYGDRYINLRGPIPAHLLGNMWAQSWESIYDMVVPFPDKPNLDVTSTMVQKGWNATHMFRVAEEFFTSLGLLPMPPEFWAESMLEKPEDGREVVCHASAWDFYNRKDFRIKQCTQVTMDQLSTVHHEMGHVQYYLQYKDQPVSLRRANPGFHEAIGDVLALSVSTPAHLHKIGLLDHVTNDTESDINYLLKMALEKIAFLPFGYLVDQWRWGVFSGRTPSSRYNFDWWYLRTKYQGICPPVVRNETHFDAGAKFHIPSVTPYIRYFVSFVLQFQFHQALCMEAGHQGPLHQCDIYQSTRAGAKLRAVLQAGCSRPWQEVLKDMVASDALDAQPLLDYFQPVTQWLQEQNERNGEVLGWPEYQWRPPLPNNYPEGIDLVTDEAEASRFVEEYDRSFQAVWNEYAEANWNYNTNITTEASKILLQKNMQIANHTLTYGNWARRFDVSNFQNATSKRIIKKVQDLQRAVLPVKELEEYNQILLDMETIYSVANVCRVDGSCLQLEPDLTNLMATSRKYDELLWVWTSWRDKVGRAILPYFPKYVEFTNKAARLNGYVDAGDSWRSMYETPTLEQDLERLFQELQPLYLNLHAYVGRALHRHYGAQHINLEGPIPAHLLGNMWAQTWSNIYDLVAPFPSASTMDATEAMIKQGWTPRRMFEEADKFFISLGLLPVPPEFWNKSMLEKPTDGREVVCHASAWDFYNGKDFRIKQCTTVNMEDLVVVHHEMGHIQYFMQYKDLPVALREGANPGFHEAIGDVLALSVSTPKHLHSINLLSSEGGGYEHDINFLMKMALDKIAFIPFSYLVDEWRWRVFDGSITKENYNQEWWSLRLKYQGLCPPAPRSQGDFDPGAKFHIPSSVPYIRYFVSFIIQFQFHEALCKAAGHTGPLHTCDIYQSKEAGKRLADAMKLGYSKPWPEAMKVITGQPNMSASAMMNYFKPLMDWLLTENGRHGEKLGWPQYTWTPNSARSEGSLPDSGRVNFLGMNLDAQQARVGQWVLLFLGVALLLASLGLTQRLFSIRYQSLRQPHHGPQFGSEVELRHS
Procedure: The peptides were chemically synthesized through solid phase synthesis for peptides ≥ 5 amino acids with a percentage purity of > 90% and supplied by Genscript (New Jersey, USA). The ACE-inhibitory activity was measured according to Jimsheena & Gowda with minor modifications. The Peptides stock solutions were diluted over ranges of concentration for each peptide. A 15 μL of the peptide was pre-incubated with 10 μL of ACE (100 mU/mL) at 37°C for 10 min. Then 50 μL of the 5 mM HHL substrate containing 0.30 M NaCl in 50 mM borate buffer pH 8.30 was added and the incubation was continued for the next 60 min. The reaction was stopped using 1 M HCl. Benzene sulfonyl chloride (BSC) and pyridine were then added at 75 μL and 150 μL, respectively and the amount of hippuric acid produced was quantified by the intensity of the yellow color produced in a microplate reader at 410 nm. The ACE-inhibitory activity of the peptides was then calculated from the average of three values as follows: ACE−inhibition(%)=[(AC−AS)/(AC−AB)]×100 (1)
Where AC means absorbance of control (where ACE and substrate were present), AS means absorbance of sample (where peptide, ACE and substrate were present), while AB means the absorbance of blank (where only substrate was present).

ACE = test system: ACE; design: method as in PMID 22224920; settings: bromelain-generated peptide from Misgurnus anguillicaudatus tissue protein; cited from earlier work

| inhibition at 10000 µM [1] [%] | IC50 [1] [µM] | Substance | IC50 (ACE) [µg/mL] |
| --- | --- | --- | --- |
| 54.8 ± 2.17 | 1680 ± 46 | EHPVL [Glu-His-Pro-Val-Leu] | – |
| 72.4 ± 1.99 | 1310 ± 17 | LAPPTM [Leu-Ala-Pro-Pro-Thr-Met] | – |
| 81.4 ± 1.78 | 980 ± 4 | KVPPKA [Lys-Val-Pro-Pro-Lys-Ala] | – |
| 62.1 ± 2.15 | 1440 ± 17 | EVLIQ [Glu-Val-Leu-Ile-Gln] | – |
| 94.4 ± 2.05 | 12 ± 1 | ALGPQFY [Ala-Leu-Gly-Pro-Gln-Phe-Tyr] | – |
| – | – | Ala-His-Leu-Leu (AHLL; printed: Ala-His-Leu-Leu) | 18.200 ± 0.900 |
